Tests used:
[1] = system: COLO 205 xenograft tumors; assay: COLO 205 xenograft model; assay type: in vivo
Procedure: Male Balb/c nude mice at 3-4 weeks old (weighing 16-18 g) were obtained from the BioLASCO Experimental Animal Center (BioLASCO, Taipei, Taiwan). All animals were maintained in pathogen free sterile isolators and in a controlled atmosphere (25±1° C. at 50% relative humidity) and with a 12 h light-12 h dark cycle according to institutional guidelines. Animals were fed with standard AIN76 diet and all food, water, caging, and bedding were sterilized prior to use. Animals had free access to food and water at all times. Food cups were replenished with fresh diet every day. All animal experimental protocol used in this study was approved by Institutional Animal Care and Use Committee of the National Kaohsiung Marine University (IACUC, NKMU, #099AAA902, Validity dates: Jan. 1, 2009 Jul. 31, 2012). After 1 week of acclimation, colon cancer COLO 205 cells (5×10^6) in 0.2 mL PBS were injected subcutaneously between the scapulae of each nude mouse. After transplantation, tumor size was measured using calipers, and the tumor volume was estimated according to the following formula: tumor volume […]=L×W2/2, where L is the length and W is the width. Once tumors reached a mean size of […], mice were randomly divided into three groups (6 animals/group). Mice were i.p. injection with pterostilbene or 3-hydroxypterostilbene (10 mg/kg/d, respectively) for 15 days, while control animals were received injection of corn oil. The diet intake and body weight of each animal was monitored every day. The tumor volume was assessed and recorded every 5 days using caliper measurements. After 15 days, the mice were sacrificed by […] and the liver, kidneys, spleen and solid tumors were excised immediately and weighed. Average tumor volume and tumor weight of each group were represent the mean±standard deviation (SD). Average tumor volumes were recorded during the treatment and average tumor weights were measured at the end of experiment. Six samples were analyzed in each group, and values represent the mean±SD. *P<0.05 and **P<0.01, compared with control group. #P<0.05, compared with pterostilbene treated group. The tumor tissues were cut into several portion for western blot analysis or stored at −80° C. […] Furthermore, in mice receiving these treatment regimens, no gross signs of toxicity were observed during visible inspections of general appearance and microscopic examinations of individual organs. • 2.

[2] = system: PARP, DFF-45, pro-caspase 8 and pro-caspase 9 in COLO 205 cells; assay: Western blotting of PARP, DFF-45, pro-caspase 8 and pro-caspase 9 cleavage; assay type: cell-based, human; details: COLO 205 cell lysates
Procedure: Western blotting analysis was performed as follows. The total proteins of COLO 205 cells were extracted via addition of gold lysis buffer (50 mM TrisHCl, pH 7.4; 1 mM NaF; 150 mM NaCl; 1 mM EGTA; 1 mM phenylmethanesulfonyl fluoride; 1% NP40; and 10 μg/mL leupeptin) to the cell pellets on ice for 30 min, followed by centrifugation at 10,000×g for 30 min at 4° C. The total proteins were measured by BioRad Protein Assay (BioRad Laboratories, Munich, Germany). The samples (50 μg of protein) were mixed with 5× sample buffer containing 0.3 M TrisHCl (pH 6.8), 25% 2mercaptoethanol, 12% sodium dodecyl sulfate (SDS), 25 mM EDTA, 20% glycerol, and 0.1% bromophenol blue. The mixtures were boiled at 100° C. for 5 min and were subjected to 10% SDS polyacrylamide minigels at a constant current of 20 mA. Electrophoresis was then carried out on SDSpolyacrylaniide gels. Proteins on the gel were electrotransferred onto an immobile membrane (PVDF; Millipore Corp., Bedford, Mass.) with transfer buffer composed of 25 mM TrisHCl (pH8.9), 192 mM glycine, and 20% methanol. The membranes were blocked with blocking solution containing 20 mM TrisHCl, and then immunoblotted with different primary antibodies and β actin. The blots were rinsed three times with PBST buffer (0.2% Tween 20 in 1× PBS buffer) for 10 min each. Then blots were incubated with 1:5000 dilution of the horseradish peroxidase (HRP) conjugated secondary antibody (Zymed Laboratories, San Francisco, Calif.) and then washed again three times with PBST buffer. The transferred proteins were visualized with an enhanced chemi-luminescence detection kit (ECL Amersham Pharmacia Biotech, Buckinghamshire, UK). The densities of the bands were quantified with a computer densitometer (AlphaImager™ 2200 System Alpha densitometer. Innotech Corporation, San Leandro, Calif.). […] The pro-caspase 8 cleavage by 3-HPT was moderate (FIG. 12).

[3] = system: caspase 3, 8 and 9 in PC-3 cells; assay: Fluorometric caspase 3, 8 and 9 activity in PC-3 cells; assay type: cell-based, human; details: PC-3, 0-20 μM, 48 hours
COLO 205 cells = assay: MTT cell viability assay, COLO 205; assay type: cell-based; details: Homo sapiens, COLO205, MTT, 24 h
Procedure: (§1) The human colon cancer cell lines COLO 205, HCT116 and HT29 were purchased from the American Type Culture Collection (Rockville, Md.). Cell lines were grown in RPMI1640 supplemented with 10% heat inactivated fetal bovine serum (GIBCO BRL, Grand Island, N.Y.), 100 units/mL of penicillin, 100 μg/mL of streptomycin), 2 mM L-glutamine (GIBCO BRL, Grand Island, N.Y.), and were kept at 37° C. in a humidified 5% CO2 incubator. Pterostilbene and 3-HPT were dissolved in dimethyl sulfoxide (DMSO, as final concentration of 0.05%). Cells were treated with 0.05% DMSO as vehicle control.
(§2) Cell viability was assayed by 3(4,5-dimethylthiazol-2-yl)-2,5-diphenyltetrazolium bromide (MTT). Briefly. COLO 205, HCT116 and HT29 cells were plated at a density of 2×10^2 cells/mL into 96 well plates. After overnight growth, cells were treated with a series of concentrations of pterostilbene or 3-hydroxypterostilbene for 24 h. The final concentrations of DMSO in the culture medium were <0.05%. At the end of treatment, 0.2% MTT was added and cells were incubated for a further 4 h. Cell viability was determined by scanning with an ELISA reader with a 570 nm filter.

HT-29 cells = assay: MTT cell viability assay, HT29; assay type: cell-based; details: Homo sapiens; HT-29, MTT, 24 h
Procedure: as §1, §2

PC-3 cells = assay: Flow cytometry analysis of subG1 cell population in PC-3 cells; assay type: cell-based, human; details: PC-3, 0-20 μM, 48 hr
Procedure: PC-3 cells were cultured in serum-free RPMI containing 0, 2.5, 5, 10, or 20 μM of 3-HPT for 48 hr followed by flow cytometric analysis.

HCT-116 cells = assay: MTT cell viability assay, HCT116; assay type: cell-based; details: Homo sapiens; HCT-116, MTT, 24 h
Procedure: as §1, §2

## COc1cc(/C=C/c2ccc(O)c(O)c2)cc(OC)c1 [3-hydroxypterostilbene, 3,4-dihydroxy-3′,5′-dimethoxy-trans-stilbene]
[1]; 10 mg/kg, Western blot, compared to the pterostilbene group
  protein levels of COX2, MMP9, VEGF, cyclin D1, and procaspase 3 in tumors: markedly decreased
[1]; 10 mg/kg/d i.p., 15 days, nude mice
  side effects or toxicity (body and organ weights, gross signs): no noticeable side effects or toxicity
[1]; 10 mg/kg/d i.p., after 15 days
  tumor volume: significantly inhibited in comparison with the pterostilbene treated mice
[1]; 10 mg/kg/d i.p., end of experiment
  tumor weight: strongly inhibited
[2]
  DFF45 protein degradation: induced DFF45 protein degradation
  pro-caspase 8 cleavage: moderate
  pro-caspase 9 cleavage: much better than that exemplified by pterostilbene
[2]; compared with pterostilbene
  degradation of PARP: markedly caused the degradation of 116 kDa PARP into 85 kDa fragments
[3]
  caspases activity (caspase 3, 8 and 9): initiation of caspases activity
COLO 205 cells
  IC50: 9 ± 0.2 µM
HT-29 cells
  IC50: 70.9 ± 1 µM
PC-3 cells
  percentage of apoptotic cells (subG1): increasing percentage of apoptotic cells over increasing concentrations
HCT-116 cells
  IC50: 40.2 ± 0.6 µM
